Results taken from patent US20250376459A1, “CRYSTALLINE FORMS OF A TYK2 INHIBITOR AND USES THEREOF” (Alumis Inc., priority 2022, published 2025).
Structures can show the parent of a compound that is named as a salt. Where two headings read alike, the source gives them in different places.

Legend:
Format in all cases: physicochemical
[1] = solubility in SGF, FeSSIF, FaSSIF and water
[2] = dynamic vapor sorption (DVS) analysis
Method: Dynamic vapor sorption analysis (DVS) was performed on a DVS Intrinsic PLUS (SMS, UK). The sample was placed into a tared sample chamber and automatically weighed. The sample was dried at 40° C. until the dm/dt was less than 0.002% and cooled to 25° C. The instrument parameters were as follows: step time (min)=60 min; sample temperature=25 C; cycle=full cycle; adsorption (% RH)=0, 10, 20, 30, 40, 50, 60, 70, 80, 90; desorption (% RH)=80, 70, 60, 50, 40, 30, 20, 10, 0; saved data rate=5 sec; total flow rate=200 sccm; post experimental flow rate=200 sccm.

[3] = solid form chemical and physical stability
[4] = about 0% to about 80% RH at 25° C.
[5] = about 0% to about 90% RH at 25° C.

Row | salt dissociation in solubility media ([1]; FaSSIF, FeSSIF and water) | solubility ([1]; FaSSIF, read-out: solubility in FaSSIF) [µg/mL] | solubility ([1]; FeSSIF, read-out: solubility in FeSSIF) [µg/mL] | solubility ([1]; SGF, simulated gastric fluid, read-out: solubility in SGF) [µg/mL] | hygroscopicity [2] | DVS reversable total mass change [2, 4] | DVS reversable total mass change [2, 5] | form change after DVS analysis [2] | time chemically and physically stable in the solid form ([3]; 40° C./75% RH) | time chemically and physically stable in the solid form ([3]; 60° C.) | SMILES
1 | dissociate to the free base | 1 to 2 | 20 to 30 | > 4100 | only slightly hygroscopic | about 0.6 wt. % | about 1.3 wt. % | No form change | at least 10 days | at least 10 days | [2H]C([2H])([2H])CC(=O)c1cnc(NC(=O)C2CC2)cc1Nc1cccc(-c2ncn(C([2H])([2H])[2H])n2)c1OC [Form 1-1, N-(4-((2-methoxy-3-(1-(methyl-d3)-1H-1,2,4-triazol-3-yl)phenyl)amino)-5-(propanoyl-3,3,3-d3)pyridin-2-yl) cyclopropanecarboxamide, methanesulfonic acid salt]
2 |  |  |  |  |  | about 0.9 wt. % | about 1.4 wt. % | No form change |  |  | [2H]C([2H])([2H])CC(=O)c1cnc(NC(=O)C2CC2)cc1Nc1cccc(-c2ncn(C([2H])([2H])[2H])n2)c1OC [Form 5-2, N-(4-((2-methoxy-3-(1-(methyl-d3)-1H-1,2,4-triazol-3-yl)phenyl)amino)-5-(propanoyl-3,3,3-d3)pyridin-2-yl) cyclopropanecarboxamide, sulfuric acid salt]
3 |  |  |  |  |  | about 0.6 wt. % | about 0.7 wt. % | No form change |  |  | [2H]C([2H])([2H])CC(=O)c1cnc(NC(=O)C2CC2)cc1Nc1cccc(-c2ncn(C([2H])([2H])[2H])n2)c1OC [Form 6, N-(4-((2-methoxy-3-(1-(methyl-d3)-1H-1,2,4-triazol-3-yl)phenyl)amino)-5-(propanoyl-3,3,3-d3)pyridin-2-yl) cyclopropanecarboxamide, p-toluenesulfonic acid salt]
